The results in this text go back to US20140171320A1, “Composition Comprising A Pesticide And An Alkoxylate Of 2-Isopropyl-5-Methylhexane-1-Amine” (BASF SE, priority 2012, published 2014).

Series [1] has as its system Setaria verticillata (SETVE). As to the kind of experiment: Greenhouse herbicidal activity of glyphosate SL formulation with amine alkoxylate adjuvant on Setaria. The settings on record: after 21 days; 140 g glyphosate-IPA salt/ha and 300 g amine alkoxylate/ha; score vs untreated plants. The series is classed as in vivo. On the procedure:
(§1) For the greenhouse tests, winter wheat (cultivar Cubus), soybean (cultivar Sultana), and maize (cultivar Amadeo) was sown or potted in loamy sandy soil to a depth of 1-2 cm. When the plants had reached a growth height of 10 to 25 cm (i.e., around 10 to 21 days after sowing), the spray mixtures were applied to the plants in a spraying cabin.
(§2) A concentrated formulation comprising glyphosate isopropylammonium in solution in water and amine alkoxylate from Example 2 was diluted with deionized water and applied at a water application rate of 375 l/ha (140 g of glyphosate-IPA salt/ha and 300 g of amine alkoxylate/ha). The temperatures in the experimental period, which lasted for 3 weeks, were between 18-35° C. During this time, the experimental plants received optimum watering, with nutrients being supplied via the water used for watering.
(§3) The herbicidal activity was evaluated by awarding scores to the treated plants in comparison to the untreated control plants (Table 2). The evaluation scale ranges from 0% to 100% activity. 100% activity means the complete death at least of those parts of the plant that are above ground. Conversely, 0% activity means that there were no differences between treated and untreated plants.
(§4) The experiments were carried out as in Example 3, on Sorghum halepense (SORHA) and Setaria verticillata (SETVE). The application rate was 140 g of glyphosate-IPA salt/ha and 300 g of amine alkoxylate/ha.

In series [2] the test system is maize (cultivar Amadeo). As to the kind of experiment: Greenhouse herbicidal activity of glyphosate SL formulation with amine alkoxylate adjuvant on maize. The series is classed as in vivo. The settings on record: after 21 days; 140 g glyphosate-IPA salt/ha and 300 g amine alkoxylate/ha, 375 l/ha water; score vs untreated plants. On the procedure: as §1, §2, §3
In series [3] the test system is winter wheat (cultivar Cubus). Kind of series: Greenhouse herbicidal activity of glyphosate SL formulation with amine alkoxylate adjuvant on winter wheat. The class given is in vivo. As to conditions: after 21 days; 140 g glyphosate-IPA salt/ha and 300 g amine alkoxylate/ha, 375 l/ha water; score vs untreated plants. On the procedure: as §1, §2, §3
The test system of series [4] is soybean (cultivar Sultana). As to the kind of experiment: Greenhouse herbicidal activity of glyphosate SL formulation with amine alkoxylate adjuvant on soybean. The series is classed as in vivo. The settings on record: after 21 days; 140 g glyphosate-IPA salt/ha and 300 g amine alkoxylate/ha, 375 l/ha water; score vs untreated plants. On the procedure: as §1, §2, §3

The nature of series [5]: Storage stability of aqueous glyphosate formulation. The class given is physicochemical. The settings on record: 41.5% by weight glyphosate-isopropylammonium salt and 15.5% by weight amine alkoxylate, −5 to +55° C.
Series [6] deals with Sorghum halepense (SORHA). As to the kind of experiment: Greenhouse herbicidal activity of glyphosate SL formulation with amine alkoxylate adjuvant on Sorghum. The series is classed as in vivo. As to conditions: after 21 days; 140 g glyphosate-IPA salt/ha and 300 g amine alkoxylate/ha; score vs untreated plants. As to the method:
as §1, §2, §3, §4

Regarding “2-Isopropyl-5-methylhexane-1-amine-10 EO”, the “Activity [%] SETARIA” value in series [1] is recorded as 78%. Also, the “Activity [%] Maize” value in series [2] was 80%. Further, the “Activity [%] Winter wheat” value in series [3] stood at 62%. Further, the “Activity [%] Soybean” value in series [4] came to 48%. For the same molecule, in series [5], the Storage stability entry is “storage stable for at least two weeks”. Also, the “Activity [%] SORHA” value in series [6] was 93%.

On to `CC(C)N.O=C(O)CNCP(=O)(O)O` [—, glyphosate isopropylammonium], for which, in series [1], the “Activity [%] SETARIA” value is reported as 58%. Besides, the “Activity [%] Maize” value in series [2] is recorded as 32%. Moreover, the “Activity [%] Winter wheat” value in series [3] was 18%. Besides, the “Activity [%] Soybean” value in series [4] worked out at 20%. Further, the “Activity [%] SORHA” value in series [6] was 33%.

As to 2-propylheptylamine-10 EO, the “Activity [%] SETARIA” value in series [1] was found to be 88%. Moreover, the “Activity [%] Maize” value in series [2] worked out at 80%. Also, the “Activity [%] Winter wheat” value in series [3] was found to be 55%. The “Activity [%] Soybean” value in series [4] came out at 42%. Also, in series [6], the “Activity [%] SORHA” value is 97%.
